Measurements: the NIST ThermoML archive (doi:10.1021/acs.jced.6b00577)

Conditions: Liquid, Frequency=8 MHz, Pulse-echo method

CCCC [butane]
Conditions	speed of sound [m/s]
199.99 K, 40128 kPa	1640.8
199.99 K, 45132 kPa	1662
199.99 K, 50136 kPa	1682.6
200 K, 1101.4 kPa	1447.8
200 K, 2102.1 kPa	1453.5
200 K, 3102.8 kPa	1459.2
200 K, 4103.5 kPa	1464.9
200 K, 5104.2 kPa	1470.5
200 K, 6105.1 kPa	1476
200 K, 7105.9 kPa	1481.5
200 K, 8106.6 kPa	1487
200 K, 9107.3 kPa	1492.4
200 K, 10108 kPa	1497.8
200 K, 12610 kPa	1510.9
200 K, 15112 kPa	1523.8
200 K, 17613 kPa	1536.5
200 K, 20115 kPa	1548.9
200 K, 25119 kPa	1573.1
200 K, 30123 kPa	1596.4
200 K, 35126 kPa	1619
200 K, 60143 kPa	1722.2
200 K, 70150 kPa	1759.8
200 K, 80157 kPa	1795.8
200 K, 90164 kPa	1830.2
200 K, 100171 kPa	1863.2
201 K, 250.62 kPa	1437.2
201 K, 600.55 kPa	1439.2
201 K, 1100.5 kPa	1442.1
201 K, 1101.5 kPa	1442.2
201 K, 2101.9 kPa	1448
201 K, 2102 kPa	1448
201 K, 3102.6 kPa	1453.7
201 K, 4103.4 kPa	1459.4
201 K, 5104 kPa	1465
220 K, 249.98 kPa	1330.5
220 K, 599.68 kPa	1332.8
220 K, 1100.7 kPa	1336.1
220 K, 1100.8 kPa	1336.1
220 K, 2101.6 kPa	1342.7
220 K, 2101.8 kPa	1342.7
220 K, 2102.1 kPa	1342.7
220 K, 2103.4 kPa	1342.6
220 K, 3102.3 kPa	1349.1
220 K, 3104.1 kPa	1349.1
220 K, 4103 kPa	1355.5
220 K, 4104.7 kPa	1355.5
220 K, 5103.6 kPa	1361.9
220 K, 6104.2 kPa	1368.2
220 K, 7104.9 kPa	1374.3
220 K, 8105.5 kPa	1380.5
220 K, 9106.2 kPa	1386.6
220 K, 10107 kPa	1392.6
220 K, 12609 kPa	1407.3
220 K, 15111 kPa	1421.8
220 K, 17612 kPa	1435.8
220 K, 20114 kPa	1449.6
220 K, 25118 kPa	1476.2
220 K, 30121 kPa	1501.8
220 K, 35125 kPa	1526.5
220 K, 40129 kPa	1550.3
220 K, 45133 kPa	1573.3
220 K, 50136 kPa	1595.6
220 K, 60144 kPa	1638.2
220 K, 70151 kPa	1678.5
220 K, 80158 kPa	1716.8
220 K, 90165 kPa	1753.2
220 K, 100172 kPa	1788.2
240 K, 252.21 kPa	1219.3
240 K, 602.15 kPa	1222
240 K, 1103 kPa	1225.8
240 K, 2103.5 kPa	1233.3
240 K, 2104.3 kPa	1233.3
240 K, 3104.1 kPa	1240.7
240 K, 3105.1 kPa	1240.7
240 K, 4104.7 kPa	1248
240 K, 4105.9 kPa	1248
240 K, 5105.3 kPa	1255.2
240 K, 5106.6 kPa	1255.2
240 K, 6107.3 kPa	1262.3
240 K, 7108.1 kPa	1269.3
240 K, 8108.8 kPa	1276.2
240 K, 9109.5 kPa	1283.1
240 K, 10110 kPa	1289.8
240 K, 12612 kPa	1306.4
240 K, 15113 kPa	1322.5
240 K, 17615 kPa	1338.1
240 K, 20116 kPa	1353.3
240 K, 25120 kPa	1382.7
240 K, 30123 kPa	1410.7
240 K, 35127 kPa	1437.6
240 K, 40130 kPa	1463.4
240 K, 45134 kPa	1488.2
240 K, 50138 kPa	1512.2
240 K, 60145 kPa	1557.8
240 K, 70152 kPa	1600.8
240 K, 80158 kPa	1641.4
240 K, 90165 kPa	1680
240 K, 100172 kPa	1716.9
259.99 K, 12610 kPa	1208.1
259.99 K, 80158 kPa	1569.8
259.99 K, 90165 kPa	1610.4
260 K, 251.45 kPa	1109.1
260 K, 601.45 kPa	1112.2
260 K, 1102.2 kPa	1116.6
260 K, 2102.8 kPa	1125.3
260 K, 2103.1 kPa	1125.3
260 K, 3103.4 kPa	1133.8
260 K, 3103.8 kPa	1133.8
260 K, 4104.1 kPa	1142.1
260 K, 4104.5 kPa	1142.2
260 K, 5104.7 kPa	1150.3
260 K, 5105.2 kPa	1150.4
260 K, 6105.9 kPa	1158.5
260 K, 7106.5 kPa	1166.4
260 K, 8107.2 kPa	1174.3
260 K, 9108 kPa	1182
260 K, 10108 kPa	1189.6
260 K, 15112 kPa	1226
260 K, 17613 kPa	1243.4
260 K, 20115 kPa	1260.3
260 K, 25119 kPa	1292.5
260 K, 30122 kPa	1323.2
260 K, 35126 kPa	1352.3
260 K, 40129 kPa	1380.2
260 K, 45133 kPa	1406.9
260 K, 50136 kPa	1432.6
260 K, 60144 kPa	1481.3
260 K, 70151 kPa	1526.8
260 K, 100172 kPa	1649
280 K, 250.96 kPa	999.47
280 K, 601 kPa	1003.1
280 K, 1101.7 kPa	1008.2
280 K, 2102.4 kPa	1018.3
280 K, 3103 kPa	1028.1
280 K, 3103.1 kPa	1028.2
280 K, 4103.6 kPa	1037.8
280 K, 4103.9 kPa	1037.8
280 K, 5104.1 kPa	1047.2
280 K, 5104.6 kPa	1047.2
280 K, 6105.4 kPa	1056.5
280 K, 7106.1 kPa	1065.6
280 K, 8106.8 kPa	1074.5
280 K, 9107.5 kPa	1083.2
280 K, 10108 kPa	1091.8
280 K, 12610 kPa	1112.6
280 K, 15112 kPa	1132.7
280 K, 17613 kPa	1151.9
280 K, 20115 kPa	1170.5
280 K, 25118 kPa	1206
280 K, 30122 kPa	1239.3
280 K, 35125 kPa	1270.9
280 K, 40128 kPa	1300.9
280 K, 45132 kPa	1329.5
280 K, 50135 kPa	1357
280 K, 60142 kPa	1408.7
280 K, 70149 kPa	1456.8
280 K, 80159 kPa	1502
280 K, 90166 kPa	1544.6
280 K, 100173 kPa	1584.9
299.99 K, 80158 kPa	1438.2
299.99 K, 90165 kPa	1482.7
299.99 K, 100172 kPa	1524.7
300 K, 599.94 kPa	893.83
300 K, 2102 kPa	911.89
300 K, 2104.2 kPa	911.91
300 K, 3102.8 kPa	923.46
300 K, 3104.9 kPa	923.48
300 K, 4103.6 kPa	934.71
300 K, 4105.7 kPa	934.73
300 K, 5104.4 kPa	945.67
300 K, 5105.9 kPa	945.68
300 K, 6106.5 kPa	956.35
300 K, 7107.2 kPa	966.78
300 K, 8107.8 kPa	976.95
300 K, 9108.4 kPa	986.91
300 K, 10109 kPa	996.68
300 K, 12610 kPa	1020.2
300 K, 15112 kPa	1042.6
300 K, 17614 kPa	1064
300 K, 20115 kPa	1084.5
300 K, 25118 kPa	1123.3
300 K, 30122 kPa	1159.6
300 K, 35125 kPa	1193.6
300 K, 40129 kPa	1225.8
300 K, 45132 kPa	1256.4
300 K, 50136 kPa	1285.6
300 K, 60143 kPa	1340.3
300 K, 70150 kPa	1390.9
300.01 K, 1100.4 kPa	899.93
320 K, 601.27 kPa	783.22
